Several values for one entry are separate records, joined by “and”; a condition that tells them apart may be missing. Identical values can stand only once. Like-named read-outs stand apart in the source and are kept apart here.
How the values were obtained:
CYP2C19 = CYP2C19 (Homo sapiens, UniProt P33261); experiment: CYP inhibition: CYP2C19; type: in vitro ADME; conditions: I-57 concentrations of up to 100 μM
IKZF4 = target: T1, IKZF4 (Homo sapiens, UniProt Q96SW2+Q9H2S9); experiment: IKZF4 degradation in vitro (FIG. 1); type: cell-based; conditions: relative to IKZF2
T1 construct: prolabel (ProLabel enzyme-fragment tag); expressed in transfected cells; host or cells: HEK293T
T1 sequence (Q9H2S9 whole entry, the tested form may be a part): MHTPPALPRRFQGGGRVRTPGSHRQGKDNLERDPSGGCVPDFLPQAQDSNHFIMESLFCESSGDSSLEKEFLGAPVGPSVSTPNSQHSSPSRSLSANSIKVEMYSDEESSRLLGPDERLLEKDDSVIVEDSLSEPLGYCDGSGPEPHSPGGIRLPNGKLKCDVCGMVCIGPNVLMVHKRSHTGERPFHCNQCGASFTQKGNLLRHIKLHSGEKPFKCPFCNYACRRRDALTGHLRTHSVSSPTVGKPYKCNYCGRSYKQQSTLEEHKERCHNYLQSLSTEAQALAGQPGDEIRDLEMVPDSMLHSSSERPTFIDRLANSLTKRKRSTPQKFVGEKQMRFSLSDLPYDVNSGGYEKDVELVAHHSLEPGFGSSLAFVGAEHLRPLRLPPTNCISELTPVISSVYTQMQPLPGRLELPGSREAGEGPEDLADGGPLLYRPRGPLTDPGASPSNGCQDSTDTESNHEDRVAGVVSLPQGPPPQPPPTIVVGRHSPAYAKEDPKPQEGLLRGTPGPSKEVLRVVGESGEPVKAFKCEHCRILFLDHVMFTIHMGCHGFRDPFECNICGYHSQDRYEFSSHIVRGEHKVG
T1 sequence (Q96SW2 whole entry, the tested form may be a part): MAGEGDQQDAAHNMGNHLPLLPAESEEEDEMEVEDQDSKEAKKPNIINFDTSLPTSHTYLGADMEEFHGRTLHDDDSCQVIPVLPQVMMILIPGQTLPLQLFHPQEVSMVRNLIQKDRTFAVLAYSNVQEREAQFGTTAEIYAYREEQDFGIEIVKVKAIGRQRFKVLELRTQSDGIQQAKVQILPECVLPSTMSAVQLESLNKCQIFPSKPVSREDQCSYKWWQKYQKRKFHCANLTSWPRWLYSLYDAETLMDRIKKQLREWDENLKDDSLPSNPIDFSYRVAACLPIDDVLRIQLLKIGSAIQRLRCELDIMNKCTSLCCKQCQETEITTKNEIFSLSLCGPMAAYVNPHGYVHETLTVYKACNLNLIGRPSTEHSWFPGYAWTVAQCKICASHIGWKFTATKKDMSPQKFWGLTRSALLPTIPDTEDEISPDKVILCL
T1 sequence (Q16531 whole entry partner, the tested form may be a part): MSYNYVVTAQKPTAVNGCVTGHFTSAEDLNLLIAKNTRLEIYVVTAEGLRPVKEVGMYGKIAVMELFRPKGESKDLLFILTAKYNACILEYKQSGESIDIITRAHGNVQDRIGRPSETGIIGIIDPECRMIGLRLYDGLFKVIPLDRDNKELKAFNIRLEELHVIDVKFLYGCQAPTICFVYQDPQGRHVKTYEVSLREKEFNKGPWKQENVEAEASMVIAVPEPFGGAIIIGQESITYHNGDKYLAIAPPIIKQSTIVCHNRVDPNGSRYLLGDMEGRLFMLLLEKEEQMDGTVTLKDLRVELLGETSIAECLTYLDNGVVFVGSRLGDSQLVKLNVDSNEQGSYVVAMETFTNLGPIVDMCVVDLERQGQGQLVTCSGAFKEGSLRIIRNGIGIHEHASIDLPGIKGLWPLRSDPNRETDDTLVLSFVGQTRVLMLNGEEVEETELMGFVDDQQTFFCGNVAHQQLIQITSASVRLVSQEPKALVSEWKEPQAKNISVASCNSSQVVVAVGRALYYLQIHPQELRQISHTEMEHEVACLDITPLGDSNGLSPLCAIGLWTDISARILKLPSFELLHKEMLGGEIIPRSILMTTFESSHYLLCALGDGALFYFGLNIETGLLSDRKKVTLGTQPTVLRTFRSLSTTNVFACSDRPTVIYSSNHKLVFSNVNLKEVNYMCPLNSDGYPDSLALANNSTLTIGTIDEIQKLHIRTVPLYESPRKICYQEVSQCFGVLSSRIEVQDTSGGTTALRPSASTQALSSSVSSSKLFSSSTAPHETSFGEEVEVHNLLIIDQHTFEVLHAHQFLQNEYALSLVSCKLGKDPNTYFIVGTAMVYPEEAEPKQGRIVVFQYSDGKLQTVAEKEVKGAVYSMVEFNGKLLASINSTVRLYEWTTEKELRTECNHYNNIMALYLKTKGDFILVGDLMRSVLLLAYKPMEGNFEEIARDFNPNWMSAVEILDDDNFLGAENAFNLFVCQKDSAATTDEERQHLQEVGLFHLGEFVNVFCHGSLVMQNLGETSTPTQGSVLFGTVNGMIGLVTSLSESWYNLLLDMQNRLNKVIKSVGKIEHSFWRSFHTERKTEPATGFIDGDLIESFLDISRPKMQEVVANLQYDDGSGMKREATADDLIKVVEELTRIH
Description: (§1) Although the specific transcriptional targets of IKZF2 remain to be defined, IKZF2 binds to and represses transcription from the IL-2 promoter region (Baine 2013). […] Finally, an in vitro assay recapitulating hallmarks of T cell dysfunction/exhaustion, by sequential TCR stimulation of isolated primary human T cells, was used to test the hypothesis that […] would rescue the exhausted phenotype and enhance Teff cell activity. […] In addition to IKZF1, other known cereblon substrates including translation termination factor G1 to S phase transition 1 (GSPT1) are not degraded by I-57 (FIG. 1).

CYP1A2 = CYP1A2 (Homo sapiens, UniProt P05177); experiment: CYP inhibition: CYP1A2; type: in vitro ADME; conditions: I-57 concentrations of up to 100 μM
CYP1A2, sequence (P05177 whole entry): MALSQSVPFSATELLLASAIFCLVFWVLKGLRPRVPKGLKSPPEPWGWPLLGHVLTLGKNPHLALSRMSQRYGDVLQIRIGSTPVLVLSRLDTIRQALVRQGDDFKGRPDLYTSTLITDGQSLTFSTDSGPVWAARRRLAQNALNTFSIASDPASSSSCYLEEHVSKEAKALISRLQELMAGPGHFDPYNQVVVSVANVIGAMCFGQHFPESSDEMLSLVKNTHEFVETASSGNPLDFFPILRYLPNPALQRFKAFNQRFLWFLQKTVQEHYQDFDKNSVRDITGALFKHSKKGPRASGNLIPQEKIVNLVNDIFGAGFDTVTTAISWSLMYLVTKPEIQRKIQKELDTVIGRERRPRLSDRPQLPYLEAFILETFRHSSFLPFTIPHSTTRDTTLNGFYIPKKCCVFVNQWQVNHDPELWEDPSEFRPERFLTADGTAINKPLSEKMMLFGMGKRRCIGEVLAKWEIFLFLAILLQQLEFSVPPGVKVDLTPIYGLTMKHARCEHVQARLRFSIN

peripheral T cells [1] = experiment: Immunization response (KLH/Squalene) in cynomolgus monkey: anti-KLH IG and Ki67 T cells; type: in vivo
Experimental: The PK/PD relationship of I-57 was further examined in cynomolgus monkeys after repeated daily oral doses of 0.1 and 3 mg/kg. In this study, a cohort of animals were initially immunized with an antigen-adjuvant mixture (KLH/Squalene). The experiment was designed to assess the effect of I-57 exposure, and the resulting IKZF2 degradation, on immune response during immunization to test the hypothesis that IKZF2 degradation would result in increased proliferation of stimulated T-cells. In the experiment, daily I-57 oral treatment was initiated 5 days after immunization. An immunization booster dose was administered on day 15. I-57 plasma concentration and IKZF2 expression (as determined by flow cytometry) in FOXP3+ T cells from PBMCs were determined (FIG. 9A and FIG. 9B).
In order to measure the impact of I-57 treatment on the immune response following immunization, serum anti-KLH IG levels were measured longitudinally, and levels of T cell activation were measured in PBMCs by flow cytometry. […] In contrast, the proportion of proliferative peripheral T cells (denoted by Ki67 staining) was increased in the highest dose group (3 mg/kg) in the recall response phase, compared to immunization alone.

IKZF2 [2] = target: T2, IKZF2 (Homo sapiens, UniProt Q96SW2+Q9UKS7); experiment: Degradation of IKZF2 in primary PBMCs, human (FIG. 3); type: cell-based; parameters: endogenous in cells; host or cells: primary human PBMCs
T2 sequence (Q9UKS7 whole entry): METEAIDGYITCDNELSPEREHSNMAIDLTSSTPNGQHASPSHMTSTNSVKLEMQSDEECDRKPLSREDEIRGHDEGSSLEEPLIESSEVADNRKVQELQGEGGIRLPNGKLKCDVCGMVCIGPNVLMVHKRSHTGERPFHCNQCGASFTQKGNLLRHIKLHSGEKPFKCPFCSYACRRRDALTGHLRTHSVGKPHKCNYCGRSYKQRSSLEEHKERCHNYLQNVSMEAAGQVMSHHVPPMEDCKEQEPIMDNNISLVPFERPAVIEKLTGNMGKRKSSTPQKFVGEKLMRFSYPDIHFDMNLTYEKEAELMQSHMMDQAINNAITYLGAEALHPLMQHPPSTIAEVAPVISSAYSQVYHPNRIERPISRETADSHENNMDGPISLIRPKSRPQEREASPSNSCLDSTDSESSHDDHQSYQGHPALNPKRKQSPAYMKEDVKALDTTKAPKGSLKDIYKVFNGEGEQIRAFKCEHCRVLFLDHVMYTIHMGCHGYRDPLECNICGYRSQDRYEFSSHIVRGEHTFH
T2 sequence (Q96SW2 whole entry): as the sequence (Q96SW2 whole entry, the tested form may be a part) above
T2 sequence (Q16531 whole entry partner): as the sequence (Q16531 whole entry partner, the tested form may be a part) above
Description: FIG. 3. is a bar graph showing the degradation of IKZF2 in primary PBMCs obtained from rabbit, dog, pig, cynomolgus monkey and human, and in primary splenocytes of mouse and rat and treated with Compound I-57.

CYP2B6 = CYP2B6 (Homo sapiens, UniProt P20813); experiment: CYP inhibition: CYP2B6; type: in vitro ADME; conditions: I-57 concentrations of up to 100 μM
CYP2B6, sequence (P20813 whole entry): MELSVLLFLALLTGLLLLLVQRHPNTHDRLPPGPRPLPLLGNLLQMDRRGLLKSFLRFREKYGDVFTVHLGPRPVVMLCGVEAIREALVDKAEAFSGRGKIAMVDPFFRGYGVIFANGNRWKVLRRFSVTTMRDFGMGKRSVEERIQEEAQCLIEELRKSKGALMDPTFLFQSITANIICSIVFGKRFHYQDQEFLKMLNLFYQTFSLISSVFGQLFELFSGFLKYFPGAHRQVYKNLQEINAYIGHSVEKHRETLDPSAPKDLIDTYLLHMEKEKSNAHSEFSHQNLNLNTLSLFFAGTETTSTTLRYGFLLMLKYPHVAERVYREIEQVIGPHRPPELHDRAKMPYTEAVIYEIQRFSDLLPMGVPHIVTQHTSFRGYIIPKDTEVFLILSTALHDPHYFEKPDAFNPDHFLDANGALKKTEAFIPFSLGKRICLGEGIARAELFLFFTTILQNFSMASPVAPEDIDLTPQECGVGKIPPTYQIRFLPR

[3] = system: IL-2 mRNA and soluble protein in Jurkat cells; experiment: IL-2 expression in TCR-stimulated Jurkat cells; type: cell-based; conditions: Homo sapiens; Jurkat cells upon TCR stimulation
Description: as §1

IKZF2 [4] = target: T2, IKZF2; experiment: IKZF2 degradation in vitro (FIG. 1); type: cell-based; parameters: prolabel (ProLabel enzyme-fragment tag); expressed in transfected cells; host or cells: HEK293T
Description: as §1

CYP2A6 = CYP2A6 (Homo sapiens, UniProt P11509); experiment: CYP inhibition: CYP2A6; type: in vitro ADME; conditions: I-57 concentrations of up to 100 μM
CYP2A6, sequence (P11509 whole entry): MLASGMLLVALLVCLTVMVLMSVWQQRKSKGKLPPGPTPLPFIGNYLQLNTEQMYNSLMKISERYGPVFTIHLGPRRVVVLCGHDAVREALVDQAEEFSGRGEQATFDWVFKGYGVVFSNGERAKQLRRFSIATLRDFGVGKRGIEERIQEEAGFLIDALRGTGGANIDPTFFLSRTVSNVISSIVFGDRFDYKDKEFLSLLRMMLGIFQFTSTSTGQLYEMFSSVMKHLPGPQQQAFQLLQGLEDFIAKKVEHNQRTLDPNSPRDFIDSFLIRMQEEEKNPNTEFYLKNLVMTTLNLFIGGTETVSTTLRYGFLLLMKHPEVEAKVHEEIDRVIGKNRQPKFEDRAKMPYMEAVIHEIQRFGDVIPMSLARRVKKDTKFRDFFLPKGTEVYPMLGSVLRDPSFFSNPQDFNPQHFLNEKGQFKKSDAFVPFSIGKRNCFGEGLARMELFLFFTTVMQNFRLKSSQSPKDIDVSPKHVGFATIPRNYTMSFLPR

plasma protein = experiment: Plasma protein binding in vitro, dog; type: in vitro ADME
Description: The binding to plasma protein of I-57 in vitro was moderate in all species, with an observed difference between rodents (73% in mouse, 76% in rat) and non-rodents (52% in dog and monkey, 54% in human). Blood-to-plasma ratios were in the range of 0.7-1.8 (human 1.1-1.3). […] Based on results with non-radiolabeled I-57 in the dog, a significant amount of unchanged I-57 was renally eliminated (˜20% of dose).

peripheral T cells [5] = experiment: Proliferation of peripheral T cells (Ki67 staining) in immunized cynomolgus monkeys (FIG. 9B); type: in vivo, cynomolgus monkey; conditions: 3 mg/kg daily, recall response phase, compared to immunization alone
Experimental: FIG. 9B. is a graph showing proliferation of peripheral T cells (Mean+/−SEM, % of predose) upon treatment with 0.1 and 3 mg/kg of Compound I-57 in cynomolgus monkeys.

IL2 mRNA = experiment: Upregulation of IL2 mRNA in TCR-stimulated Jurkat cells (FIG. 2B); type: cell-based; conditions: increasing concentrations
Experimental: FIG. 2B is a graph showing the change upregulation of IL2 mRNA in TCR-stimulated Jurkat cells after IKZF2 degradation when cells were treated with increasing concentrations of Compound I-57.

IKZF2 [6] = target: T2, IKZF2; experiment: Degradation of prolabel-tagged IKZF2 in HEK293T cells (FIG. 1); type: cell-based; parameters: prolabel (ProLabel enzyme-fragment tag); expressed in transfected cells; host or cells: HEK293T; conditions: HEK293T cells overexpressing prolabel-tagged target proteins, various concentrations
Description: FIG. 1. is a graph showing the selectivity of Compound I-57 for the degradation of IKZF2 over the other IKAROS family members, IKZF1, IKZF4, and GSPT1 at various concentrations in HEK293T cells overexpressing prolabel-tagged target proteins.

[7] = Single oral dose PK in cynomolgus monkey; type: in vivo; conditions: for Cmax / AUC(0-t): plasma; for Cmax / AUC(0-t) / AUC24 h/Dose / Cmax/Dose: unbound, n = 3, mean ± SD; for AUC(0-t): read-out: AUC24 h
Experimental: The PK/PD relationship of I-57 was examined in cynomolgus monkeys after a single oral dose of 0.01, 0.1 or 1 mg/kg. I-57 plasma concentration and IKZF2 expression (as determined by flow cytometry) in FOXP3+ T cells from PBMCs were determined (FIG. 4 and FIG. 5).

CYP2C19, sequence (P33261 whole entry): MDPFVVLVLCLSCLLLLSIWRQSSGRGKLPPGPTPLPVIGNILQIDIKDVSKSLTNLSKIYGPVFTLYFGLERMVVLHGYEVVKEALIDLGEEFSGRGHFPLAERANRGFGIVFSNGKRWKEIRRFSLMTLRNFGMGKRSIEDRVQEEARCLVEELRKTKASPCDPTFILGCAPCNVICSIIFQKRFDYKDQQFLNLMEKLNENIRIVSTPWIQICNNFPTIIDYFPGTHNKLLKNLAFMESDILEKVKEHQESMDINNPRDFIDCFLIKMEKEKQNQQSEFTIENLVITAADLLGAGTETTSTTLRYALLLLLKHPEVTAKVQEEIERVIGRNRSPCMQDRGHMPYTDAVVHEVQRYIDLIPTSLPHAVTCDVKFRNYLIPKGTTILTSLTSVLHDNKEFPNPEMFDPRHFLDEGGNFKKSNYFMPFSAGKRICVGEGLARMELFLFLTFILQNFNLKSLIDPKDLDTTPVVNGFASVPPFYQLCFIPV

O=C1CCC(N2Cc3cc(C4CCN(Cc5ccccc5)CC4)ccc3C2=O)C(=O)N1 (stereo not drawn) [Compound I-57, 3-(5-(1-benzylpiperidin-4-yl)-1-oxoisoindolin-2-yl)piperidine-2,6-dione]
inhibition of CYP2C19 (CYP2C19): very little and no inhibition
degradation of IKZF4 (IKZF4): less potency than IKZF2
inhibition of CYP1A2 (CYP1A2): very little and no inhibition
proportion of proliferative peripheral T cells (Ki67 staining) (peripheral T cells [1]; 3 mg/kg, recall response phase, compared to immunization alone): increased
Anti-IgG titers elicited by the immunization (serum anti-KLH IG) (peripheral T cells [1]; KLH/Squalene immunization, daily I-57): not further enhanced
degradation of IKZF2 (IKZF2 [2]): degradation was observed
inhibition of CYP2B6 (CYP2B6): very little and no inhibition
AC50 [3]: ~4 nM and ~0.0017 µg/mL
degradation of IKZF2 (IKZF2 [4]): potent and selective degrader of IKZF2
inhibition of CYP2A6 (CYP2A6): very little and no inhibition
binding to plasma protein (plasma protein): 52%
proportion of proliferative peripheral T cells (Ki67 staining) (peripheral T cells [5]): increased
IL-2 mRNA expression (IL2 mRNA): expressed more IL-2 mRNA in a dose-dependent manner
degradation of IKZF2 and selectivity over IKZF1, IKZF4 and GSPT1 (IKZF2 [6]): potent and specific degrader of IKZF2
Cmax ([7]; single oral dose 0.01 mg/kg): 2.11 ± 0.69 ng/mL
AUC(0-t) ([7]; single oral dose 0.01 mg/kg): 14.1 ± 4.72 ng·h/mL
Cmax ([7]; single oral dose 0.1 mg/kg): 13.4 ± 2.77 ng/mL
AUC(0-t) ([7]; single oral dose 0.1 mg/kg): 102 ± 13.2 ng·h/mL
Cmax ([7]; single oral dose 1 mg/kg): 102 ± 45.3 ng/mL
AUC(0-t) ([7]; single oral dose 1 mg/kg): 610 ± 236 ng·h/mL
dose proportionality of exposure ([7]; single oral dose 0.01, 0.1 or 1 mg/kg): slightly less than dose proportional
AUC24 h/Dose ([7]; single oral dose 0.01 mg/kg): 1410 ± 472 (ng · h/mL)/(mg/kg)
Cmax/Dose ([7]; single oral dose 0.01 mg/kg): 211 ± 69.1 (ng/mL)/(mg/kg)
AUC24 h/Dose ([7]; single oral dose 0.1 mg/kg): 1020 ± 136 (ng · h/mL)/(mg/kg)
Cmax/Dose ([7]; single oral dose 0.1 mg/kg): 134 ± 27.7 (ng/mL)/(mg/kg)
AUC24 h/Dose ([7]; single oral dose 1 mg/kg): 610 ± 236 (ng · h/mL)/(mg/kg)
Cmax/Dose ([7]; single oral dose 1 mg/kg): 102 ± 45.3 (ng/mL)/(mg/kg)
